Data taken from patent US10508120B2, “TYK2 inhibitors and uses thereof” (Nimbus Lakshmi, Inc., priority 2017, dated 2019).
Where two headings read alike, the source gives them in different places.

How the values were obtained:
[1] = target: human TYK2 (JH2domain-pseudokinase) (Homo sapiens (Human), UniProt P29597); assay: TYK2 JH2 Domain Binding Assay (KINOMEscan)
Procedure, shortened: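 Kds, run in duplicate, came from Hill fits (slope fixed at −1) of an 11-point 3-fold dilution series starting at 30,000 nM. Bead-retained TYK2 JH2 (aa G556–D888)–NFkB DBD fusion, DNA-tagged and expressed in HEK293 cells, was read by qPCR after 1 h room-temperature binding in 0.9% DMSO.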

Tyk2 kinase domain (DH1) = Tyk2 kinase domain (DH1) (Homo sapiens (Human), UniProt P29597); assay: Tyk2 Radioactive Kinase Assay; format: biochemical; settings: for inhibition at 10 µM: read-out: Tyk2 JH1% Inhibition @ 10 μM
Sequence of Tyk2 kinase domain (DH1) (P29597 897-1176): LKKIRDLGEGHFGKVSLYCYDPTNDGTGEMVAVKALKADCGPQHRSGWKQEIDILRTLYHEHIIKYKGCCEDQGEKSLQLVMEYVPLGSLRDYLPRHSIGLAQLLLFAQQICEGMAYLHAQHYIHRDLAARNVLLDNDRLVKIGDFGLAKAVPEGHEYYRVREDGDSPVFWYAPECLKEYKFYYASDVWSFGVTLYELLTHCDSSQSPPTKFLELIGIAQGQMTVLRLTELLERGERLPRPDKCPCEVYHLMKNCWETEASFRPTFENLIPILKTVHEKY
Procedure: (§1) The Tyk2 and JAK2 radioactive kinase assay measures the percent inhibition at the Tyk2 kinase domain (DH1) and the percent inhibition at the JAK2 kinase domain (JH1). Results of the assay are expressed as percent inhibition at 10 μM.

JAK2 kinase domain (JH1) = JAK2 kinase domain (JH1) (Homo sapiens (Human), UniProt O60674); assay: JAK2 Radioactive Kinase Assay; format: biochemical; settings: for inhibition at 10 µM: read-out: JAK2 JH1% Inhibition @ 10 μM
Sequence of JAK2 kinase domain (JH1) (O60674 849-1124): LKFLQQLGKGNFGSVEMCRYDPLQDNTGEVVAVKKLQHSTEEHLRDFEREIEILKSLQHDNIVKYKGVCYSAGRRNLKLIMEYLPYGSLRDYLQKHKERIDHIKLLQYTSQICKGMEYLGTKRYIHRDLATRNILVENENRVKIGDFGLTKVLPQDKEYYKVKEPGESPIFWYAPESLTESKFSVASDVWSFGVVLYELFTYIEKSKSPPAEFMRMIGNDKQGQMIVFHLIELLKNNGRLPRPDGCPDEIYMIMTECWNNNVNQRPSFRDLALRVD
Procedure: as §1

Sequence of human TYK2 (JH2domain-pseudokinase) (P29597 556-888): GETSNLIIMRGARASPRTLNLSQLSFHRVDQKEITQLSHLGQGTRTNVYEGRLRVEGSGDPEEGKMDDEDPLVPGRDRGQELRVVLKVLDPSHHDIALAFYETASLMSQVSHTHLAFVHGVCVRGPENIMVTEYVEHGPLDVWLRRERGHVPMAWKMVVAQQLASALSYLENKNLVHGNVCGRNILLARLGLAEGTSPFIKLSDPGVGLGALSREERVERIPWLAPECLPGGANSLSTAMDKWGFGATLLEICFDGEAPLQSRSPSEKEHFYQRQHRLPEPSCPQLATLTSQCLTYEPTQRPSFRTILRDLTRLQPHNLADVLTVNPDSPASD

CNc1cc(Nc2cccn([C@H]3C[C@@H]3F)c2=O)nc2c(C(=O)N[C@H]3CC[C@H]3O)cnn12 (mixture of isomers) [I-1090, 5-((1-((1S,2S)-2-fluorocyclopropyl)-2-oxo-1,2-dihydropyridin-3-yl)amino)-N-(2-hydroxycyclobutyl)-7-(methylamino)pyrazolo[1,5-a]pyrimidine-3-carboxamide]
Kd [1]: < 0.2 nM | inhibition at 10 µM (Tyk2 kinase domain (DH1); 10 μM compound, 10 μM ATP): < 50% | inhibition at 10 µM (JAK2 kinase domain (JH1); 10 μM compound, 10 μM ATP): < 50%

CNc1cc(Nc2cccn([C@H]3CCC[C@@H](OC)C3)c2=O)nc2c(C(=O)NCC3(CO)CC3)cnn12 (racemic) [I-862]
Kd [1]: 0.2 to 1 nM | inhibition at 10 µM (Tyk2 kinase domain (DH1); 10 μM compound, 10 μM ATP): < 50% | inhibition at 10 µM (JAK2 kinase domain (JH1); 10 μM compound, 10 μM ATP): < 50%

Cc1cc(Nc2cc(N)n3ncc(C(N)=O)c3n2)cc(N2CCCC(O)C2)n1 (stereo in doubt) [I-62, (S)-7-amino-5-((2-(3-hydroxypiperidin-1-yl)-6-methylpyridin-4-yl)amino)pyrazolo[1,5-a]pyrimidine-3-carboxamide]
Kd [1]: > 10 nM | inhibition at 10 µM (Tyk2 kinase domain (DH1); compound at 10 μM, ATP 10 μM): < 50% | inhibition at 10 µM (JAK2 kinase domain (JH1); compound at 10 μM, ATP 10 μM): < 50%

Cc1c(Nc2cccnc2OC(C)C)nc2c(C(=O)N[C@@H]3C[C@@H]3F)cnn2c1N (stereo in doubt) [I-206, 7-amino-N-((1R,2S)-2-fluorocyclopropyl)-5-((2-isopropoxypyridin-3-yl)amino)-6-methylpyrazolo[1,5-a]pyrimidine-3-carboxamide]
Kd [1]: 1 to 10 nM | inhibition at 10 µM (Tyk2 kinase domain (DH1); compound at 10 μM, ATP 10 μM): < 50% | inhibition at 10 µM (JAK2 kinase domain (JH1); compound at 10 μM, ATP 10 μM): < 50%

CNc1cc(-c2cn(C(C)C)c3ncc(Cl)cc23)nc2c(C(=O)N[C@@H]3C[C@@H]3F)cnn12 (stereo in doubt) [I-254, 5-(5-chloro-1-isopropyl-1H-pyrrolo[2,3-b]pyridin-3-yl)-N-((1R,2S)-2-fluorocyclopropyl)-7-(methylamino)pyrazolo[1,5-a]pyrimidine-3-carboxamide]
Kd [1]: 0.2 to 1 nM | inhibition at 10 µM (Tyk2 kinase domain (DH1); compound at 10 μM, ATP 10 μM): < 50% | inhibition at 10 µM (JAK2 kinase domain (JH1); compound at 10 μM, ATP 10 μM): < 50%

COc1ncccc1Nc1cc(NCCN2CCOCC2)n2ncc(C(=O)N[C@@H]3C[C@@H]3F)c2n1 (stereo in doubt) [I-388, N-((1R,2S)-2-fluorocyclopropyl)-5-((2-methoxypyridin-3-yl)amino)-7-((2-morpholinoethyl)amino)pyrazolo[1,5-a]pyrimidine-3-carboxamide]
Kd [1]: 0.2 to 1 nM | inhibition at 10 µM (Tyk2 kinase domain (DH1); compound at 10 μM, ATP 10 μM): < 50% | inhibition at 10 µM (JAK2 kinase domain (JH1); compound at 10 μM, ATP 10 μM): < 50%

[2H]C([2H])([2H])Oc1ncccc1Nc1cc(NC)n2ncc(C(=O)N[C@@H]3CC[C@@H]3O)c2n1 (stereo in doubt) [I-400, N-((1R,2S)-2-hydroxycyclobutyl)-5-((2-(methoxy-d3)pyridin-3-yl)amino)-7-(methylamino) pyrazolo[1,5-a]pyrimidine-3-carboxamide]
Kd [1]: 0.2 to 1 nM | inhibition at 10 µM (Tyk2 kinase domain (DH1); compound at 10 μM, ATP 10 μM): < 50% | inhibition at 10 µM (JAK2 kinase domain (JH1); compound at 10 μM, ATP 10 μM): < 50%

CNc1cc(Nc2cccnc2OC2CC2)nc2c(C(=O)N[C@@H]3CCC[C@H]3O)cnn12 (stereo in doubt) [I-424, 5-((2-cyclopropoxypyridin-3-yl)amino)-N-(2-hydroxycyclopentyl)-7-(methylamino)pyrazolo[1,5-a]pyrimidine-3-carboxamide]
Kd [1]: < 0.2 nM | inhibition at 10 µM (Tyk2 kinase domain (DH1); compound at 10 μM, ATP 10 μM): < 50% | inhibition at 10 µM (JAK2 kinase domain (JH1); compound at 10 μM, ATP 10 μM): < 50%

CNc1cc(-c2nn(C3CCOCC3)c3ncccc23)nc2c(C(=O)N[C@@H]3C[C@@H]3F)cnn12 (stereo in doubt) [I-450, N-((1R,2S)-2-fluorocyclopropyl)-7-(methylamino)-5-(1-(tetrahydro-2H-pyran-4-yl)-1H-pyrazolo[3,4-b]pyridin-3-yl)pyrazolo[1,5-a]pyrimidine-3-carboxamide]
Kd [1]: 0.2 to 1 nM | inhibition at 10 µM (Tyk2 kinase domain (DH1); compound at 10 μM, ATP 10 μM): < 50% | inhibition at 10 µM (JAK2 kinase domain (JH1); compound at 10 μM, ATP 10 μM): < 50%

CNc1cc(Nc2cccnc2OC)nc2c(C(=O)N[C@@H]3CCC[C@@H](O)C3)cnn12 (stereo in doubt) [I-459, N-(3-hydroxycyclohexyl)-5-((2-methoxypyridin-3-yl)amino)-7-(methylamino)pyrazolo[1,5-a]pyrimidine-3-carboxamide]
Kd [1]: < 0.2 nM | inhibition at 10 µM (Tyk2 kinase domain (DH1); compound at 10 μM, ATP 10 μM): < 50% | inhibition at 10 µM (JAK2 kinase domain (JH1); compound at 10 μM, ATP 10 μM): < 50%

CNc1cc(Nc2cccnc2OC2CC2)nc2c(C(=O)N[C@H]3CC[C@H](O)C3)cnn12 (stereo in doubt) [I-461, 5-((2-cyclopropoxypyridin-3-yl)amino)-N-(3-hydroxycyclopentyl)-7-(methylamino)pyrazolo[1,5-a]pyrimidine-3-carboxamide]
Kd [1]: < 0.2 nM | inhibition at 10 µM (Tyk2 kinase domain (DH1); compound at 10 μM, ATP 10 μM): < 50% | inhibition at 10 µM (JAK2 kinase domain (JH1); compound at 10 μM, ATP 10 μM): < 50%

CNc1cc(Nc2cccc(C3CCCCO3)n2)nc2c(C(=O)NC3CC3)cnn12 (stereo in doubt) [I-463, (R)—N-cyclopropyl-7-(methylamino)-5-((6-(tetrahydro-2H-pyran-2-yl)pyridin-2-yl)amino) pyrazolo[1,5-a]pyrimidine-3-carboxamide]
Kd [1]: 0.2 to 1 nM | inhibition at 10 µM (Tyk2 kinase domain (DH1); compound at 10 μM, ATP 10 μM): < 50% | inhibition at 10 µM (JAK2 kinase domain (JH1); compound at 10 μM, ATP 10 μM): 50 to 70%

CNc1cc(Nc2cccc(C3CCCCO3)n2)nc2c(C(=O)NC3CC3)cnn12 (stereo in doubt) [I-464, (S)—N-cyclopropyl-7-(methylamino)-5-((6-(tetrahydro-2H-pyran-2-yl)pyridin-2-yl)amino) pyrazolo[1,5-a]pyrimidine-3-carboxamide]
Kd [1]: 0.2 to 1 nM | inhibition at 10 µM (Tyk2 kinase domain (DH1); compound at 10 μM, ATP 10 μM): < 50% | inhibition at 10 µM (JAK2 kinase domain (JH1); compound at 10 μM, ATP 10 μM): < 50%

CNc1cc(Nc2cccn(CCOC3CC3)c2=O)nc2c(C(=O)NC3CC[C@H]3O)cnn12 (stereo in doubt) [I-515, 5-((1-(2-cyclopropoxyethyl)-2-oxo-1,2-dihydropyridin-3-yl)amino)-N-((1R,2R)-2-hydroxycyclobutyl)-7-(methylamino)pyrazolo[1,5-a]pyrimidine-3-carboxamide]
Kd [1]: 0.2 to 1 nM | inhibition at 10 µM (Tyk2 kinase domain (DH1); compound at 10 μM, ATP 10 μM): < 50% | inhibition at 10 µM (JAK2 kinase domain (JH1); compound at 10 μM, ATP 10 μM): < 50%

CNc1cc(-c2cn(C(C)C)c3ncccc23)nc2c(C(=O)N[C@@H]3C[C@H]3O)cnn12 (stereo in doubt) [I-653, N-((1R,2R)-2-hydroxycyclopropyl)-5-(1-isopropyl-1H-pyrrolo[2,3-b]pyridin-3-yl)-7-(methylamino)pyrazolo[1,5-a]pyrimidine-3-carboxamide]
Kd [1]: < 0.2 nM | inhibition at 10 µM (Tyk2 kinase domain (DH1); compound at 10 μM, ATP 10 μM): < 50% | inhibition at 10 µM (JAK2 kinase domain (JH1); compound at 10 μM, ATP 10 μM): < 50%

CNc1cc(Nc2cccn([C@H]3CCCOC3)c2=O)nc2c(C(=O)N[C@H]3CC[C@H](O)C3)cnn12 (stereo in doubt) [I-701, N-(3-hydroxycyclopentyl)-7-(methylamino)-5-((2-oxo-1-((R)-tetrahydro 2H-pyran-3-yl)-1,2-dihydropyridin-3-yl)amino)pyrazolo[1,5-a]pyrimidine-3-carboxamide]
Kd [1]: 0.2 to 1 nM | inhibition at 10 µM (Tyk2 kinase domain (DH1); compound at 10 μM, ATP 10 μM): < 50% | inhibition at 10 µM (JAK2 kinase domain (JH1); compound at 10 μM, ATP 10 μM): < 50%

CNc1cc(Nc2cccc(N3CCCC3=O)n2)nc2c(C(=O)N[C@@H]3CC[C@@H]3O)cnn12 [I-970]
inhibition at 10 µM (Tyk2 kinase domain (DH1); 10 μM compound, 10 μM ATP): < 50% | inhibition at 10 µM (JAK2 kinase domain (JH1); 10 μM compound, 10 μM ATP): < 50%

CNc1cc(Nc2cccn(C(C)C)c2=O)nc2c(C(=O)N[C@H]3CC[C@H]3O)cnn12 [I-977]
Tyk2 JH1% Inhibition @ 10 μM (Tyk2 kinase domain (DH1); 10 μM compound, 10 μM ATP): A (percent inhibition at 10 μM lower than 50) | JAK2 JH1% Inhibition @ 10 μM (JAK2 kinase domain (JH1); 10 μM compound, 10 μM ATP): A (percent inhibition at 10 μM lower than 50)

CNc1cc(Nc2cccn(C(C)C)c2=O)nc2c(C(=O)N[C@@H]3CC[C@H]3O)cnn12 [I-981]
Tyk2 JH1% Inhibition @ 10 μM (Tyk2 kinase domain (DH1); 10 μM compound, 10 μM ATP): A (percent inhibition at 10 μM lower than 50) | JAK2 JH1% Inhibition @ 10 μM (JAK2 kinase domain (JH1); 10 μM compound, 10 μM ATP): A (percent inhibition at 10 μM lower than 50)

CNc1cc(Nc2cccn([C@@H]3CCC[C@@H](O)C3)c2=O)nc2c(C(=O)N[C@@H]3C[C@@H]3F)cnn12 [I-983]
Tyk2 JH1% Inhibition @ 10 μM (Tyk2 kinase domain (DH1); 10 μM compound, 10 μM ATP): A (percent inhibition at 10 μM lower than 50) | JAK2 JH1% Inhibition @ 10 μM (JAK2 kinase domain (JH1); 10 μM compound, 10 μM ATP): A (percent inhibition at 10 μM lower than 50)

CNc1cc(Nc2cccn([C@@H]3CCC[C@H](OC)C3)c2=O)nc2c(C(=O)N[C@@H]3CC[C@H]3O)cnn12 [I-994]
Tyk2 JH1% Inhibition @ 10 μM (Tyk2 kinase domain (DH1); 10 μM compound, 10 μM ATP): A (percent inhibition at 10 μM lower than 50) | JAK2 JH1% Inhibition @ 10 μM (JAK2 kinase domain (JH1); 10 μM compound, 10 μM ATP): A (percent inhibition at 10 μM lower than 50)

CNc1cc(Nc2cccn([C@H]3CC[C@@H]3OC)c2=O)nc2c(C(=O)N[C@@H]3C[C@@H]3F)cnn12 [I-1021]
inhibition at 10 µM (Tyk2 kinase domain (DH1); 10 μM compound, 10 μM ATP): < 50% | inhibition at 10 µM (JAK2 kinase domain (JH1); 10 μM compound, 10 μM ATP): < 50%

CNc1cc(Nc2cccn([C@H]3CCC[C@H](OC)C3)c2=O)nc2c(C(=O)NCC3(CO)CC3)cnn12 [I-1086]
Tyk2 JH1% Inhibition @ 10 μM (Tyk2 kinase domain (DH1); 10 μM compound, 10 μM ATP): A (percent inhibition at 10 μM lower than 50) | JAK2 JH1% Inhibition @ 10 μM (JAK2 kinase domain (JH1); 10 μM compound, 10 μM ATP): A (percent inhibition at 10 μM lower than 50)

CNc1cc(Nc2cccn([C@H]3C[C@@H]3F)c2=O)nc2c(C(=O)NCC3(CO)CC3)cnn12 [I-1121, 5-((1-((1S,2S)-2-fluorocyclopropyl)-2-oxo-1,2-dihydropyridin-3-yl)amino)-N-((1-(hydroxymethyl)cyclopropyl)methyl)-7-(methylamino)pyrazolo[1,5-a]pyrimidine-3-carboxamide]
Tyk2 JH1% Inhibition @ 10 μM (Tyk2 kinase domain (DH1); 10 μM compound, 10 μM ATP): A (percent inhibition at 10 μM lower than 50) | JAK2 JH1% Inhibition @ 10 μM (JAK2 kinase domain (JH1); 10 μM compound, 10 μM ATP): A (percent inhibition at 10 μM lower than 50)
